According to ChEMBL document CHEMBL4765464, “Discovery of BMS-986144, a Third-Generation, Pan-Genotype NS3/4A Protease Inhibitor for the Treatment of Hepatitis C Virus Infection” (J Med Chem, 2020):

Columns and labels:
[1] = Inhibition of HCV 4a NS3/4A protease preincubated for 45 mins in presence of compound; set-up: species or system Hepatitis C virus subtype 4a
Cytochrome P450 3A4 [2] = molecular target: T1, Cytochrome P450 3A4 (Homo sapiens, UniProt P08684); assay: Inhibition of human CYP3A4 in human pooled liver microsomes in presence of testosterone as substrate preincubated for 30 mins in presence of NADPH followed by addition of substrate by LC-MS/MS analysis; assay type: ADME
[3] = Ratio of drug concentration in liver to plasma in rat at 5 mg/kg, po measured upto 24 hrs; assay type: ADME, organism-based; details: liver and plasma
[4] = Selectivity index, ratio of IC50 for inhibition of HCV 2a NS3/4A protease to IC50 for inhibition of HCV 2a NS3/4A protease preincubated for 45 mins in presence of compound
Cytochrome P450 3A4 [5] = molecular target: T1, Cytochrome P450 3A4; assay: Inhibition of human CYP3A4 in human pooled liver microsomes in presence of midazolam as substrate preincubated for 30 mins in presence of NADPH followed by addition of substrate by LC-MS/MS analysis; assay type: ADME
Cytochrome P450 3A4 [6] = molecular target: T1, Cytochrome P450 3A4; assay: Inhibition of human CYP3A4 in human pooled liver microsomes at 0.002 to 40 uM in presence of testosterone as substrate preincubated in presence of NADPH followed by addition of substrate by LC-MS/MS analysis; assay type: ADME; details: TDE = time-dependent effect, dose 0.002-40 µM, time <=30 min
[7] = Inhibition of HCV 1b NS3/4A protease; set-up: species or system Hepatitis C virus subtype 1b
[8] = Cmax in rat at 5 mg/kg, po; assay type: ADME, organism-based; set-up: route oral, dose 5 mg/kg; details: in vivo
[9] = Inhibition of HCV 2a NS3/4A protease; set-up: species or system Hepatitis C virus subtype 2a
[10] = Drug concentration in rat plasma at 5 mg/kg, po measured upto 24 hrs; assay type: ADME, organism-based; details: read-out: Ct
[11] = Inhibition of recombinant full length NS3/4A protease in Hepatitis C virus subtype 1a replicon infected in human HuH7 cells preincubated for 3 days followed by substrate addition and measured after 2 hrs by renilla luciferase reporter gene assay; assay type: cell-based; details: Huh-7
[12] = Half-life in cynomolgus monkey at 3 mg/kg, po or 1 mg/kg, iv; assay type: ADME, organism-based, Macaca fascicularis; details: in vivo
[13] = Inhibition of HCV 3a NS3/4A protease preincubated for 45 mins in presence of compound; set-up: species or system Hepatitis C virus subtype 3a

T1 sequence (P08684 whole entry): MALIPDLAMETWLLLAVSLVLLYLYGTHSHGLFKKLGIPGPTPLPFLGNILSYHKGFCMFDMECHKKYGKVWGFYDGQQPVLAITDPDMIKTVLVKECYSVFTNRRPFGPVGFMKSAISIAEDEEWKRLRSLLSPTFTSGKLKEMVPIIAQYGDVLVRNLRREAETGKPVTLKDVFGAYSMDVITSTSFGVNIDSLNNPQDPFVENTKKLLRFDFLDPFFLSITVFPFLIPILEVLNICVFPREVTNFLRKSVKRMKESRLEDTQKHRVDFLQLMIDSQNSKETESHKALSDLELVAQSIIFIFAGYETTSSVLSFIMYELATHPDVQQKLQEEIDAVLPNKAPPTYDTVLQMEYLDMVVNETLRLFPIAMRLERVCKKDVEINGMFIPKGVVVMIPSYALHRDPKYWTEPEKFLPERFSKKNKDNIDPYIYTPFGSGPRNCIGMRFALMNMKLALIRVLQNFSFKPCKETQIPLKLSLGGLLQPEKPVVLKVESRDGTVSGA

Molecule `CC[C@@H]1C[C@H](C)CC/C=C\[C@@H]2C[C@@]2(C(=O)NS(=O)(=O)C2(C)CC2)NC(=O)[C@@H]2C[C@@H](Oc3nccc4cc(OC)c(F)cc34)CN2C(=O)[C@H]1NC(=O)OC(C)(C)C(F)(F)F` has an IC50 [1] of 0.1 nM, an IC50 (Cytochrome P450 3A4 [2]) of 3020 nM and a Kp at 24 h [3] of 1.5. The Selectivity Index [4] was 3.5, the IC50 (Cytochrome P450 3A4 [5]) was 2850 nM and the “inhibition (INH)” value (Cytochrome P450 3A4 [6]) was “Tde”. For the same molecule, the IC50 [7] was 0.6 nM, the Cmax [8] was 12.1 µM and the IC50 [9] was 0.7 nM. The concentration at 24 h [10] was 3.85 µM, the EC50 [11] was 2.8 nM and the half-life [12] was 3 h. It also gave an IC50 [13] of 7.5 nM.
